Patent US5891917A, “Certain acrylonitrile-sulfonamide derivatives” (Sugen, Inc., priority 1997, dated 1999)
Where two headings read alike, the source gives them in different places.

Key:
[1] = system: 3T3/IGF-1R cells; experiment: IGF-1 Receptor Growth Assay (3T3/IGF-1R); assay type: cell-based
Experimental: IGF-1 Receptor Growth Assay
3T3/IGF-1 R (10% FBS/2 mM glutamine/DMEM)
Cell Plating--Trypsinize and count 3T3/IGF-1R and NIH 3T3 c7 cells. Dilute in growth media to 2000 cells/200 μl and seed flat bottom 96-well plates with 200 μl/well, one plate for two compounds for each cell line.
Compound preparation--Add DMSO to each compound to make 100 mM stock solutions.
Aliquot each compound to 3-4 sterile screw cap tubes and store at -20° C. After thawing, make sure the compound has gone completely back into solution. Throw away after 3 freeze/thaws.
3T3/IGF-1R cells--For each 96-well plate, make 15 ml of 10 nM IGF-1/0.5% FBS/2 mM glutamine/DMEM (30 μl of 5 μM IGF-1/15 ml).
Aliquot 1.5 ml 10 nM IGF-1/0.5% FBS to a sterile tube for each compound to be tested (the first time a compound is tested, use a 15 ml tube in case it is necessary to add extra medium to get it into solution).
Add 3 μl of 100 mM stock of each compound to a tube so 200 μM final. Shake or vortex until it goes into solution. If it is necessary to add additional medium, note the final concentration.
For the DMSO control, prepare 0.5 ml/plate of 0.2% DMSO/10 nM IGF-1/0.5% FBS (2 μl DMSO/ml).
For every two compounds, aliquot 130 μl 10 nM IGF-1/0.5% FBS to wells in columns 2-11 of a 96-well round bottom plate.
Add 260 μl of each compound to four wells in column 12.
Do 2-fold dilutions (130 μl) from columns 12 to 3 on each plate (column 2 will be for the untreated control), mixing thoroughly.
Remove medium from 3T3/IGF-1 R cells, one plate at a time.
Transfer 120 μl from each well on a compound dilution plate to the corresponding well of cells.
Add 120 μl 0.2% DMSO/10 nM IGF-1/0.5% FBS to four wells in column 1.
Add 120 μl 0.5% FBS (without IGF-1) to other four wells in column 1 for negative control.
Refeed--Repeat steps above, adding exactly the same IGF-1 and compound concentration to each well as before.
Analysis of cells--Look at wells with the highest concentrations for each compound to make sure it has not precipitated.
Detection--Follow the steps for fixing and staining described in the SOP for SRB Assays.
Data analysis--Find averages and standard deviations for each set of four OD's.
Using wells in column 2 (treated with IGF-1 but not compound) as 100%, calculate percent of control for each concentration of compound.
Determine the fold difference between the IGF-1-treated and untreated cells. It should be 2-3-fold.
Determine the percent of control for 0.2% DMSO.
Use a curve fit method to graph percent of control vs. log(molar concentration) and determine the IC50.

[2] = target: T1, FLK-1 receptor (Mus musculus, UniProt P35918); experiment: ELISA assay to measure kinase activity of FLK-1 receptor in FLK-1/NIH cells; assay type: cell-based, murine; settings: 50 ng/ml VEGF, read-out: ELISA DATA: FLK-1-(Cell.)
T1 construct: expressed in transfected cells; host or cells: NIH3T3C7#3 cells (FLK-1 infected)
Source text: For purposes of this application, although the nomenclature of the human and murine counterparts of the generic "flk-I" receptor differ, they are, in many respects, interchangeable. The murine receptor, FLK1, and its human counterpart, KDR, share a sequence homology of 93.4% within the intracellular domain. Likewise, murine FLK-I binds human VEGF with the same affinity as mouse VEGF, and accordingly, is activated by the ligand derived from either species. Millauer et al., 1993, Cell 72:835-846; Quinn et al., 1993, Proc. Natl. Acad. Sci. USA 90:7533-7537. FLK-1 also associates with and subsequently tyrosine phosphorylates human RTK substrates (e.g., PLC-γ or p85) when coexpressed in 293 cells (human embryonal kidney fibroblasts).
ELISA Assay To Measure Kinase Activity Of FLK-I Receptor In FLK-I/NIH Cells
An ELISA assay was conducted to measure the kinase activity of the FLK-I receptor and more specifically, the inhibition or activiation of protein tyrosine kinase activity on the FLK-I receptor.
k. N1H3T3C7#3 Cells (FLK-I infected cells);
1. Coat Corning 96-well elisa plates with 1.0 ug per well Cappel Anti-rabbit IgG antibody in 0.1M Na2CO3 pH 9.6. Bring final volume to 150 ul per well. Coat plates overnight at 4° C. Plates can be kept up to two weeks when stored at 4° C.
2. […]

[3] = read-out: Growth Data: 3T3/IGF-1R-0.5% FBS
[4] = read-out: Growth Data: 3T3/IGF-1R-10% FBS

T1 sequence (P35918 20-1345): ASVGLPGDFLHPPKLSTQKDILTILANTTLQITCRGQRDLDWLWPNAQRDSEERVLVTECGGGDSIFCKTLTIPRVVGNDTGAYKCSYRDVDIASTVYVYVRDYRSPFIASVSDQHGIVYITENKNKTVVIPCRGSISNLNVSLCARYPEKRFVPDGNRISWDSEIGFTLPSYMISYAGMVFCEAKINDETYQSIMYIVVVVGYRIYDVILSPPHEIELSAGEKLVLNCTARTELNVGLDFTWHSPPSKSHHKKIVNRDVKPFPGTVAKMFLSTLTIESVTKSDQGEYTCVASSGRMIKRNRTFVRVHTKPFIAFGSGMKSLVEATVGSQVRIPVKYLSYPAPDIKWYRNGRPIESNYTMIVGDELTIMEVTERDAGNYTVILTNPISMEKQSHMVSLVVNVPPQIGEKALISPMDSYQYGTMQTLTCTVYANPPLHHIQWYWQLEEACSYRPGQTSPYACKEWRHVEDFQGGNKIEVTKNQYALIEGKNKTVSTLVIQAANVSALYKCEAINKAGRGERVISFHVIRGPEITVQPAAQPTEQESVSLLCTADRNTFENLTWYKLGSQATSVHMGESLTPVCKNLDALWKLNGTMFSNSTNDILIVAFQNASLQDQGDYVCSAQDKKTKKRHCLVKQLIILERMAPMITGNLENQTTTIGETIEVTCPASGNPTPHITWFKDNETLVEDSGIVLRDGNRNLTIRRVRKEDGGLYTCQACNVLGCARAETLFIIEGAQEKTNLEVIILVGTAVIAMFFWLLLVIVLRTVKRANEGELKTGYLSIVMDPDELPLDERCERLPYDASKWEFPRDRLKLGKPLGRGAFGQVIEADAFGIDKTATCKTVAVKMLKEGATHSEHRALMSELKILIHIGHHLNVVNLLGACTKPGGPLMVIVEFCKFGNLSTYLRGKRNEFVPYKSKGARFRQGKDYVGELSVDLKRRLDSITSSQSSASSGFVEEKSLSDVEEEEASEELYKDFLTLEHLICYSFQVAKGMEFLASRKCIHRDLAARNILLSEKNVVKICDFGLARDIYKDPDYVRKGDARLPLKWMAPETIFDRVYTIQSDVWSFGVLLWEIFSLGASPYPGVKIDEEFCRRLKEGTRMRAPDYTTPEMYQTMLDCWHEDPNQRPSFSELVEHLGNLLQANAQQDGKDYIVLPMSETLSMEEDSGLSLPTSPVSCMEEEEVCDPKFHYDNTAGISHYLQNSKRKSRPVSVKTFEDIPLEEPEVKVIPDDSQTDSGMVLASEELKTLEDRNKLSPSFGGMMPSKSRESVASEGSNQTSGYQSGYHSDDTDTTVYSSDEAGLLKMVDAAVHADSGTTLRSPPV

Row | SMILES | IC50 [1, 3] [µM] | IC50 [1, 4] [µM] | IC50 [2] [µM]
1 | CC(C)c1cc(/C=C(\C#N)S(=O)(=O)c2ccccc2)cc(C(C)C)c1O [Compound 731] | 25 | 92 | 
2 | CC(C)c1cc(/C=C(\C#N)S(=O)(=O)NCc2ccccc2)cc(C(C)C)c1O [Compound 732] | 9.2 | 79 | 
3 | CC(C)c1cc(/C=C(\C#N)S(=O)(=O)Cc2cccc(C(F)(F)F)c2)cc(C(C)C)c1O [Compound 736] | 14.7 | 74 | 
4 | CC(C)c1cc(/C=C(\C#N)S(=O)(=O)c2ccc(F)cc2)cc(C(C)C)c1O [Compound 741, (E)-3-(3,5-Diisopropyl-4-hydroxyphenyl)-2-(4-fluorophenylsulfonyl)acrylonitrile] | 35 | 91 | 
5 | CC(C)c1cc(/C=C(\C#N)S(=O)(=O)c2ccccn2)cc(C(C)C)c1O [Compound 747] |  |  | > 50
6 | Cc1cc(/C=C(\C#N)S(=O)(=O)c2ccccc2)cc(C)c1O [Compound 748] |  |  | < 50
